Results as given in BindingDB's records for doi:10.1021/jm00147a030 (1985).

Biological target: Angiotensin-converting enzyme (Cavia porcellus)
Test: In vitro inhibitory activity against Angiotensin I converting enzyme from unpurified guinea pig serum

| SMILES | IC50 [nM] |
| --- | --- |
| CC(SC(CCc1ccccc1)C(=O)O)C(=O)N1CCC[C@H]1C(=O)O (stereo not given in full) | 580 |
| CCOC(=O)C(CCc1ccccc1)OC(C)C(=O)N1C(C(=O)O)CC2CCCCC21 (stereo not given) | 24 |
| CC(OC(CCc1ccccc1)C(=O)O)C(=O)N1Cc2ccccc2CC1C(=O)O (stereo not given) | 86 |
| CCOC(=O)C(CCc1ccccc1)SC(C)C(=O)N1CCCC1C(=O)O (stereo not given) | 2900 |
| CC(SC(CCc1ccccc1)C(=O)O)C(=O)N1C2CCCCC2C[C@H]1C(=O)O (stereo not given in full) | 140 |
| CCOC(=O)C(CCc1ccccc1)SC(C)C(=O)N1CSC[C@@H]1C(=O)O (stereo not given in full) | 4800 |

More lines, in order of falling IC50, values ahead:

| IC50 [nM] | SMILES |
| --- | --- |
| 460 | CCOC(=O)C(CCc1ccccc1)SC(C)C(=O)N1Cc2ccccc2C[C@H]1C(=O)O (stereo not given in full) |
| 220 | CCOC(=O)C(CCc1ccccc1)[S+]([O-])C(C)C(=O)N1C2CCCCC2C[C@H]1C(=O)O (stereo not given in full) |
| 220 | CCOC(=O)C(CCc1ccccc1)OC(C)C(=O)N1CCCC1C(=O)O (stereo not given) |
| 14 | CCOC(=O)C(CCc1ccccc1)OC(C)C(=O)N1Cc2ccccc2CC1C(=O)O (stereo not given) |
